This passage reports EC50 results from PubChem BioAssay AID618 (Sanford-Burnham Center for Chemical Genomics, 2007).

SMILES strings stand for the structures. Activity calls are given as the source filed them. How the calls were made is not given here. A value given as a limit tells only on which side of the number the result lay.

This assay relates to MT1-MMP promoter luciferase reporter cells, luminescence. Briefly: inhibitors of MT1-MMP promoter transcription, cell-based, luciferase reporter, luminescence (AID 618).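 Further: actives suppress MT1-MMP promoter-driven transcription so potencies describe inhibitors.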

Broadly, the EC50 is the concentration at which the effect is half-maximal. On to `COc1ccc(O)c(C(=O)CC(=O)c2ccccc2)c1`, for which the EC50 was 2.22 µM.
The value for `Clc1ccc(-c2nnc(N3CCCC3)nn2)cc1` was 6.38 µM; that for `O=C1c2ccccc2C(=O)C1c1nccc2ccccc12` was 1.83 µM.
For the compound `c1ccc(-c2nc(-c3ccccn3)no2)cc1`, the EC50 was 8.19 µM.
`O=C(Nc1ccc(N2CCCCC2)cc1)c1ccccc1`: the EC50 is 3.57 µM.
For `Cc1ccc(OCc2nc(-c3ccccn3)no2)c(Br)c1`, the EC50 is 2.17 µM.
For the compound `CCN1C=CC(=C2C(=O)c3ccccc3C2=O)C=C1`, the EC50 was 0.2 µM.
With `C=CCNc1ncnc2c1cnn2-c1ccc(OC)cc1`, the EC50 is 8.5 µM.
As for `C/C(=N/NC(=O)c1cc(C2CC2)[nH]n1)c1cccs1`, the EC50 was 1.77 µM.
Consider `CCOc1ccc(-c2cc(CCCC(=O)Nc3cc(OC)ccc3OC)no2)cc1`, for which the EC50 is 3.5 µM.
As to `Nc1cccc2nc3ccccc3cc12`, the half-maximal effective concentration (EC50) was 21.9 µM.
The value for `CCCCCc1ccc(-c2ccc(C(=O)O)cc2)nc1` was 3.53 µM; that for `CN(C)CCCNS(=O)(=O)c1ccc(N2CCC(c3ccc(Cl)cc3)=N2)cc1` was 12 µM.
The value for `O=c1c(Cl)c(N2CCCCC2)cnn1-c1nc2ccccc2[nH]1` was 0.59 µM; that for `COc1ccc(C(=O)/C=C/Nc2cccc(O)c2)cc1` was 1.23 µM.
The value for `CC(=O)N(/N=C1\Sc2ccccc2C1=O)c1ccc(C)cc1C` was 1.97 µM.
On to `CC(C)C(=O)Nc1ccc(-c2nc3cccnc3o2)cc1`, for which the EC50 was 6.05 µM.
With `C=CCNc1nc(-c2ccccn2)nnc1-c1ccccc1`, the EC50 is 15.2 µM.
Turning to `O=c1c2ccccc2nnn1CSc1nnc2sc3ccccc3n12`, the EC50 was 8.02 µM.
As for `O=C(c1cc(-c2cccc(O)c2)on1)N1CCCCC1`, the EC50 was 6.35 µM.
In the case of `COc1ccc(O)c(C(=O)CC(=O)c2ccc(F)cc2)c1`, the EC50 was 0.57 µM.
For the compound `CCOC(=O)/C(=C\c1ccccc1)C(=O)c1cc(C(C)=O)c(Nc2ccccc2)s1`, the EC50 was 14.4 µM.
Take `COCCn1c(C)cc(C2=NNC(=Nc3ccccc3F)SC2)c1C`: the EC50 was 3.04 µM.
`Cc1c(C(=O)NC2=NCCS2)oc2ccccc12`: the EC50 was 9.29 µM.
`COc1ccc(-c2cc3nc(C)cc(N)n3n2)cc1`: the EC50 was 1.73 µM.
For `CCCc1cc(C(=O)Nc2nccs2)cs1`, the EC50 was 12.7 µM.
For the compound `CC(C)(C)C(=O)N1CCc2cc(-c3csc(N)n3)ccc21`, the EC50 was 1.36 µM.
Regarding `c1ccc(OCCSc2nnc3sc4ccccc4n23)cc1`, the EC50 was 1.43 µM.
Take `O=C1/C(=C/Nc2ccc3c(c2)OCO3)CCc2ccccc21`: the EC50 is 0.81 µM.
The value for `O=C(Nc1ccccn1)c1cc2ccccc2o1` was > 50 µM (inactive).
Regarding `COc1ccc2nc(-c3ccc(N)cc3)[nH]c2c1`, the EC50 is > 50 µM (inactive).
`N#Cc1c(NC(=O)CSc2ncn[nH]2)sc2c1CCCCC2`: the EC50 is less than 0.098 µM.
With `Cc1nc(NC2=NCN(CCCN3CCOCC3)CN2)nc2c(C)cccc12`, the EC50 is 34.3 µM.
For the compound `Cc1csc(NC(=O)c2cc3c(s2)CCCC3)n1`, the EC50 is 1.26 µM.
The result for `Cc1oc(-c2ccc3c(c2)OCCO3)cc1C(=O)O` reads 2.94 µM; that for `Cc1ccc(C(=O)N/N=C/c2ccc([N+](=O)[O-])s2)cc1`, 0.3 µM.
Take `CC(C)CNC(=O)c1coc(=O)c(Br)c1`: the EC50 is 18.5 µM.
Consider `Cc1ccc(-c2nc3cc(N)ccc3o2)cc1`, for which the EC50 is 2.91 µM.
With `CC1=CC(C)(C)Nc2ccc(OC(=O)CN3C(=O)CCC3=O)cc21`, the EC50 was 42 µM.
Turning to `Clc1c(CSc2nc3ccccc3o2)nc2ccccn12`, the EC50 is 12.1 µM.
With `O=C1c2ccccc2C(=O)C1c1ccnc2ccccc12`, the EC50 is 1.02 µM.
In the case of `Cc1ccc(C(=O)Nc2cccc(C(=O)O)c2)cc1`, the EC50 was 0.66 µM.
In the case of `O=C(/C=C\Nc1ccc2c(c1)OCO2)c1ccccn1`, the EC50 is 0.23 µM.
With `c1ccc(-c2ccc(-c3ccccn3)nn2)nc1`, the EC50 was 4.2 µM.
The value for `Cc1cc(C(=O)CSc2nc3ccccc3[nH]2)c(C)n1CC1CCCO1` (stereo not given) was 3.86 µM; that for `CCn1c(SCC(=O)Nc2ccccc2C)nnc1-c1ccccc1O` was > 50 µM (inactive); that for `O=C1c2ccccc2S(=O)(=O)N1Cc1nc2ccccc2s1` was 3.06 µM.
For the compound `O=C1C(c2ccnc3ccccc23)=C(O)c2ccccc21`, the EC50 was > 50 µM (inactive).
With `COC(=O)c1ccc(-c2nc3cc(N)ccc3o2)cc1`, the EC50 was 3.09 µM.
With `CCOc1ccc(OCc2ccc(C(=O)OCc3ccccn3)o2)cc1`, the EC50 is 3.05 µM.
With `Cc1ccccc1Cn1nnc(-c2cccc(C(=O)O)c2)n1`, the EC50 was 18 µM.
As to `COc1ccc(-c2noc(CCCC(=O)O)n2)cc1`, the EC50 is 0.77 µM.
On to `Brc1ccc(-c2nc(-c3ccccn3)no2)o1`, for which the EC50 was 2.14 µM.
`Cc1oncc1C(=O)Nc1ccc(C(F)(F)F)cc1`: the EC50 was 5.65 µM.
For `CC(C)(C)c1ccc(C(=O)N2CCCCCC2=O)cc1`, the EC50 is 12.8 µM.
For `CCCCc1ccc(-c2nc(-c3ccncc3)no2)cc1`, the EC50 was 13.4 µM.
As to `Cc1cc(-c2csc(N)n2)c(C)n1CCc1ccccc1`, the EC50 was 13.2 µM.
In the case of `Nc1ccc(-c2nc3c(Cl)cc(N)cc3[nH]2)cc1`, the EC50 was 10.7 µM.
For `Cc1ccc(-c2nnc(SCC(=O)Nc3ccccc3F)o2)cc1`, the EC50 was 0.6 µM.
For `O=C(O)CCSc1nnc(-c2ccc3c(c2)OCO3)o1`, the EC50 is 29.7 µM.
On to `CN1CCN(c2ncnc3c2cnn3-c2ccc(Cl)cc2)CC1`, for which the EC50 is 3.9 µM.
On to `c1ccc(C2=NNC(=NC3CC3)SC2)cc1`, for which the EC50 is 1.7 µM.
As to `CN(C)c1ccc(NC(=S)c2ccccn2)cc1`, the EC50 was 0.4 µM.
With `O=C1C(N2CCOCC2)=C(n2nnc3ccccc32)C(=O)c2ccccc21`, the EC50 is 10.5 µM.
On to `CCc1cc2c(=O)n(Cc3ccco3)c(SCc3c(C)noc3C)nc2s1`, for which the EC50 is > 50 µM (inactive).
Turning to `COc1ccc(-c2cc3nnc(-c4ccccc4)nc3s2)cc1`, the EC50 was 0.86 µM.
The value for `Nc1ccc2oc(-c3ccc4nc[nH]c4c3)nc2c1` was 4.29 µM.
As for `Cc1cc(C)c2c(N)c(C(=O)Nc3ncc(C)s3)sc2n1`, the EC50 was 0.21 µM.
Turning to `Cc1cc(C(=O)CN2C(=O)c3ccccc3S2(=O)=O)c(C)n1CC1CCCO1` (stereo not given), the EC50 is 0.11 µM.
For `CCOc1ccc(OCc2ccc(C(=O)O)o2)cc1`, the EC50 was 5.8 µM.
`c1ccc(-c2noc(-c3cccs3)n2)nc1`: the EC50 is > 50 µM (inactive).
On to `COc1ccc(-c2cc(C(=O)O)c(C)o2)cc1OC`, for which the EC50 was 3.55 µM.
The value for `CC(C)(C)c1ccc(-c2nc(-c3ccncc3)no2)cc1` was 6.13 µM.
On to `CN(C)c1nc(-c2ccccn2)nnc1-c1ccccc1`, for which the EC50 is > 50 µM (inactive).
With `CCOC(=O)CNC(=O)CSc1ncnc2c1cnn2-c1ccc(C)cc1`, the EC50 is 28 µM.
The result for `CCN(CC)c1ccc2cc(-c3nc4ccccc4[nH]3)c(=O)oc2c1` reads 1.06 µM; that for `COc1ccc(NC(=O)c2cc3ccccn3n2)cc1`, 4.38 µM.
For the compound `Nc1nc(Nc2ccc(Cl)cc2)nc2ccccc12`, the EC50 was 2.13 µM.
The result for `Cc1cccc(C(=O)N2CCN(C(=O)c3cccc(C)c3)C(C)C2)c1` (stereo not given) reads > 50 µM (inactive); that for `Cc1ccoc1C(=O)Nc1ccc(CC(=O)O)cc1`, 0.42 µM.
